Assay results from article PMC4864540, “Isolation and Characterization of a Broad Spectrum Bacteriocin from Bacillus amyloliquefaciens RX7” (BioMed Research International, 2016).

Tests used:
[1] = system: L. monocytogenes ATCC 19114; test: Effect of organic solvents on antimicrobial activity; type: physicochemical, Listeria monocytogenes; settings: 2 h at 37°C, residual activity against L. monocytogenes ATCC 19114
Protocol: To evaluate pH stability, the pH of crude bacteriocin solution was adjusted with 1 N HCl and 1 N NaOH and readjusted to pH 7 after incubation for 2 h at 37°C. To evaluate thermal stability, the crude bacteriocin solution was incubated at 4, 37, 50, 80, and 100°C for 15–30 minutes. All samples were cooled to room temperature before activity assays. To analyze sensitivity to various enzymes, the crude bacteriocin solution was treated at 37°C for 2 h with 10 mg/mL (final concentration) of the following enzymes: α-amylase, α-chymotrypsin, lipase, proteinase-K, pepsin, or trypsin. All enzymes used were from Sigma (USA) and Takara (Japan). The samples were then boiled for 2 min to denature the enzymes and cooled to room temperature. Samples were exposed to various organic solvents at a final concentration of 10% (v/v) to explore their effects on bacteriocin activity. After incubation for 2 h at 37°C, the residual activity was recorded. All treated samples were tested for residual activity against L. monocytogenes ATCC 19114, as described above.

[2] = system: L. monocytogenes ATCC 19114; test: Mode of action, time-kill study (viable cell count); type: cell-based, Listeria monocytogenes; settings: 80 AU/mL added to L. monocytogenes at 4.2 × 10^8 CFU/mL, mid-exponential phase, viable counts at 1-hour intervals, mean of three experiments
Protocol: To determine the mode of action of the bacteriocin, the crude bacteriocin was added at a final concentration of 80 AU/mL to the culture at the mid-exponential growth phase of L. monocytogenes ATCC 19114 in 20 mL of TSB medium. Viable cells were counted at 1-hour intervals for the next 8 hours. Viable cell counting was repeated in triplicate and the mean values were calculated.

[3] = system: Streptococcus agalactiae ATCC 13813; test: Agar well diffusion assay; type: cell-based; settings: cell-free supernatant, medium TSB
Protocol: (§1) Soil samples were collected from a farm in Cheonan city, Korea. They were mixed with sterile water (1 : 10, w/v), homogenized, and heated at 50°C for 60 min in a water bath. One mL of this suspension was inoculated into 100 mL of tryptic soy broth (Difco, USA) and incubated at 50°C for 24 h, after which microbial growth was monitored based on changes in turbidity of the cultures. Aliquots of the cultures were inoculated onto TSB plates, incubated at 30°C, and single colonies were isolated and screened for antimicrobial activity. The antimicrobial activity was performed according to Ramachandran et al. with modifications. It was expressed as the diameter of the inhibition zones around the wells using agar well diffusion assays with Listeria monocytogenes ATCC 19114 as the indicator strain.
(§2) Antimicrobial activity was detected using the agar well diffusion assay and tested against all indicator strains (Table 1) grown in their respective media, as indicated (Difco, USA). An aliquot of culture was centrifugated at 6,000 g for 15 min at 4°C (Mega 21R, Hanil Co., Republic of Korea), filtered using 0.45 μm pore-size cellulose acetate syringe filters (Advantec Co., Japan) to remove cells, then applied to wells on agar plates. Experiments were done in no less than five individual trials having no less than three replications.
(§3) The plates were incubated at the optimal temperature of the test organism. The bacteriocin titer was determined using the serial twofold dilution method. Activity was defined as the reciprocal of the dilution after the last serial dilution giving a zone of inhibition and was expressed as activity units (AU) per milliliter. All measurements were done in triplicate and the means are shown as the results.

[4] = system: Staphylococcus aureus KFRI 00188; test: Agar well diffusion assay; type: cell-based; settings: cell-free supernatant, medium NB
Protocol: as §1, §2, §3

[5] = system: Salmonella pullorum KVCC-BA0702509; test: Agar well diffusion assay; type: cell-based; settings: cell-free supernatant, medium NB
Protocol: as §1, §2, §3

[6] = system: Pseudomonas aeruginosa CCARM 2003; test: Agar well diffusion assay; type: cell-based; settings: cell-free supernatant, medium LB
Protocol: as §1, §2, §3

[7] = system: Bacillus licheniformis KCCM 12145; test: Agar well diffusion assay; type: cell-based; settings: cell-free supernatant, medium NB
Protocol: as §1, §2, §3

[8] = system: Bacillus cereus KCTC 1661; test: Agar well diffusion assay; type: cell-based; settings: cell-free supernatant, medium LB
Protocol: as §1, §2, §3

[9] = system: Klebsiella pneumoniae subsp. pneumoniae KCCM 11418; test: Agar well diffusion assay; type: cell-based; settings: cell-free supernatant, medium NB
Protocol: as §1, §2, §3

[10] = system: Salmonella enteritidis KCCM 12021; test: Agar well diffusion assay; type: cell-based; settings: cell-free supernatant, medium NB
Protocol: as §1, §2, §3

[11] = system: Shigella flexneri KCCM 40414; test: Agar well diffusion assay; type: cell-based; settings: cell-free supernatant, medium NB
Protocol: as §1, §2, §3

[12] = system: Lactobacillus delbrueckii KCCM 11357; test: Agar well diffusion assay; type: cell-based; settings: cell-free supernatant, medium MRS
Protocol: as §1, §2, §3

[13] = system: Pseudomonas aeruginosa KCCM 11266; test: Agar well diffusion assay; type: cell-based; settings: cell-free supernatant, medium NB
Protocol: as §1, §2, §3

[14] = system: Listeria monocytogenes ATCC 19114; test: Agar well diffusion assay; type: cell-based; settings: cell-free supernatant, medium TSB
Protocol: as §1, §2, §3

NH2-X-Ala-Trp-Tyr-Asp-Ile-Arg-Lys-Leu-Gly-Asn-Lys-Gly-Ala [RX7 bacteriocin, Bacteriocin of approximately 5 kDa produced by Bacillus amyloliquefaciens RX7; homologous to lantibiotic haloduracin A1]
Residual activity (%) ([1]; Acetone 10% (v/v)): 90% | Residual activity (%) ([1]; Acetonitrile 10% (v/v)): 90% | Residual activity (%) ([1]; Butanol 10% (v/v)): 80% | Residual activity (%) ([1]; Chloroform 10% (v/v)): 80% | Residual activity (%) ([1]; Ethanol 10% (v/v)): 90% | Residual activity (%) ([1]; Methanol 10% (v/v)): 80% | incubation time for complete bactericidal action (no colony formation on TSB agar) [2]: 2 h | Inhibition zone (mm) [3]: ++ (less than 20 mm) | Inhibition zone (mm) [4]: ++ (less than 20 mm) | Inhibition zone (mm) [5]: + (less than 10 mm) | Inhibition zone (mm) [6]: ++ (less than 20 mm) | Inhibition zone (mm) [7]: ++ (less than 20 mm) | Inhibition zone (mm) [8]: ++ (less than 20 mm) | Inhibition zone (mm) [9]: + (less than 10 mm) | Inhibition zone (mm) [10]: ++ (less than 20 mm) | Inhibition zone (mm) [11]: ++ (less than 20 mm) | Inhibition zone (mm) [12]: + (less than 10 mm) | Inhibition zone (mm) [13]: ++ (less than 20 mm) | Inhibition zone (mm) [14]: +++ (less than 30 mm)
